# Laboratory results reported in US8765940B2 (priority 2009, dated 2014).
# Target: PI3Kδ (Homo sapiens (Human), UniProt O00329)
# Format: biochemical
# Conditions: PI3Kδ Alphascreen assay
# Description: A PI3K Alphascreen® assay (PerkinElmer, Waltham, Mass.) was used to measure the activity of a panel of four phosphoinositide 3-kinases: PI3Kα, PI3Kβ, PI3Kγ, and PI3Kδ. Enzyme reaction buffer was prepared using sterile water (Baxter, Deerfield, Ill.) and 50 mM Tris HCl pH 7, 14 mM MgCl2, 2 mM sodium cholate, and 100 mM NaCl. 2 mM DTT was added fresh the day of the experiment. The Alphascreen buffer was made using sterile water and 10 mM Tris HCl pH 7.5, 150 mM NaCl, 0.10% Tween 20, and 30 mM EDTA. 1 mM DTT was added fresh the day of the experiment. Compound source plates used for this assay were 384-well Greiner clear polypropylene plates containing test compounds at 5 mM and diluted 1:2 over 22 concentrations. Columns 23 and 24 contained only DMSO as these wells comprised the positive and negative controls, respectively. Source plates were replicated by transferring 0.5 uL per well into 384-well Optiplates (PerkinElmer, Waltham, Mass.).
# Each PI3K isoform was diluted in enzyme reaction buffer to 2× working stocks. PI3Kα was diluted to 1.6 nM, PI3Kβ was diluted to 0.8 nM, PI3Kγ was diluted to 15 nM, and PI3Kδ was diluted to 1.6 nM. PI(4,5)P2 (Echelon Biosciences, Salt Lake City, Utah) was diluted to 10 μM and ATP was diluted to 20 μM. This 2× stock was used in the assays for PI3Kα and PI3Kβ. For assay of PI3Kγ and PI3Kδ, PI(4,5)P2 was diluted to 10 μM and ATP was diluted to 8 μM to prepare a similar 2× working stock. Alphascreen reaction solutions were made using beads from the anti-GST Alphascreen kit (PerkinElmer, Waltham, Mass.). Two 4× working stocks of the Alphascreen reagents were made in Alphascreen reaction buffer. In one stock, biotinylated-IP4 (Echelon Biosciences, Salt Lake City, Utah) was diluted to 40 nM and streptavadin-donor beads were diluted to 80 μg/mL. In the second stock, PIP3-binding protein (Echelon Biosciences, Salt Lake City, Utah) was diluted to 40 nM and anti-GST-acceptor beads were diluted to 80 μg/mL.
# Using a 384-well Multidrop (Titertek, Huntsville, Ala.), 10 μL/well of 2× enzyme stock was added to columns 1-24 of the assay plates for each isoform. 10 μL/well of the appropriate substrate 2× stock (containing 20 μM ATP for the PI3Kα and β assays and containing 8 μM ATP for the PI3Kγ and δ assays) was then added to Columns 1-24 of all plates. Plates were then incubated at room temperature for 20 minutes. In the dark, 10 μL/well of the donor bead solution was added to columns 1-24 of the plates to quench the enzyme reaction. The plates were incubated at room temperature for 30 minutes. Still in the dark, 10 μL/well of the acceptor bead solution was added to columns 1-24 of the plates. The plates were then incubated in the dark for 1.5 hours. The plates were read on an Envision multimode Plate Reader (PerkinElmer, Waltham, Mass.) using a 680 nm excitation filter and a 520-620 nm emission filter.
# Sequence of PI3Kδ (O00329 whole entry): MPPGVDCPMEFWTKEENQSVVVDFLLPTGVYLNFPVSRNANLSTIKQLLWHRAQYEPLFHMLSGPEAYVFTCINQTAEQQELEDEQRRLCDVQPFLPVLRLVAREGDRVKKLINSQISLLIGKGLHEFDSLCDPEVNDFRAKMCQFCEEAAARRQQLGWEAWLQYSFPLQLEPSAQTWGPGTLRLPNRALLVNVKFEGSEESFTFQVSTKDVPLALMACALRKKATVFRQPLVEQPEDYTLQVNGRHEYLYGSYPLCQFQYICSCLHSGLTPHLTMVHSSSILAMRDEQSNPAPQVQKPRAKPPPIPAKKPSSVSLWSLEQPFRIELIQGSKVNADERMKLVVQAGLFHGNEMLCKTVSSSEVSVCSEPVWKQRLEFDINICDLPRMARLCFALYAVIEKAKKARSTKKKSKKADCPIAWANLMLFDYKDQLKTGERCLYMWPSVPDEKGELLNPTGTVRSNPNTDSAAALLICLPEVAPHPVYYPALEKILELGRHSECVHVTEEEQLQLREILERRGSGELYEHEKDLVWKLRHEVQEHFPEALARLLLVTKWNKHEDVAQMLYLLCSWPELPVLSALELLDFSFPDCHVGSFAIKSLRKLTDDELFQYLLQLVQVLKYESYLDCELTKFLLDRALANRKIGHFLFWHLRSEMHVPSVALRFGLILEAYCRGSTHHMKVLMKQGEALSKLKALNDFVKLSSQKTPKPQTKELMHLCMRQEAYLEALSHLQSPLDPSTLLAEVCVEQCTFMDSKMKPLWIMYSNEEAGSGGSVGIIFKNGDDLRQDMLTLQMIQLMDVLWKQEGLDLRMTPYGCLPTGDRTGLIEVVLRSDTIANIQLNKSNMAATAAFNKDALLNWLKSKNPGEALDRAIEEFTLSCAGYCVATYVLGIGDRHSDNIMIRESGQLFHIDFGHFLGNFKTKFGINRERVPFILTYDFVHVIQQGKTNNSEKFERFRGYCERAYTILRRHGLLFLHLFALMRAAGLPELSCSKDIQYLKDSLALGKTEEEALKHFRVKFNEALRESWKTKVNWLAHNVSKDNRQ
# Sequence of PI3Kδ (P27986 whole entry partner): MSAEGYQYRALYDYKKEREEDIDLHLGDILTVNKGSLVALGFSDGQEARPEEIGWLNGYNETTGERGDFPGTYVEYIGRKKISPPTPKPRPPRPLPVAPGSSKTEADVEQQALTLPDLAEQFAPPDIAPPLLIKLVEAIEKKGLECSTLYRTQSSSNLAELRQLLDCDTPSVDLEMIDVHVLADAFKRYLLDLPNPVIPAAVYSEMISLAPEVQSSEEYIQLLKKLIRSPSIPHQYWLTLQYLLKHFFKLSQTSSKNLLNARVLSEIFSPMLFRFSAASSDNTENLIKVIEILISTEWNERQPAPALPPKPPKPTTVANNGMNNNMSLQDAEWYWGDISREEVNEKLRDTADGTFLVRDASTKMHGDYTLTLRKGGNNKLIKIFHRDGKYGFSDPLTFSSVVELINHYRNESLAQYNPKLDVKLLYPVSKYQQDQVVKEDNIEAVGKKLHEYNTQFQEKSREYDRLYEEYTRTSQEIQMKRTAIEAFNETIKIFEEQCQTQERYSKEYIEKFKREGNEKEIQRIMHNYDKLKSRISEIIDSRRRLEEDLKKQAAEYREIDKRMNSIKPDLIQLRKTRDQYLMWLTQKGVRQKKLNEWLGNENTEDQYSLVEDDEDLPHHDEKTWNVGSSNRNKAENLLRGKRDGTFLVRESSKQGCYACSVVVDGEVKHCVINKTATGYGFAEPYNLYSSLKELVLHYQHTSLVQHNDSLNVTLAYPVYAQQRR
row,Structure (SMILES),Ki [nM]
1,"Cc1c(-c2ccccn2)nc2cccc(F)c2c1N1CC(C)(C)c2ccc(N3CCOCC3)cc21 [4-(3,3-dimethyl-6-(4-morpholinyl)-2,3-dihydro-1H-indol-1-yl)-5-fluoro-3-methyl-2-(2-pyridinyl)quinoline]",156
2,"COc1cc(OC)c2nc(C)c(C)c(N3CC(C)(C)c4ccc(N5CCOCC5)cc43)c2c1 [4-(3,3-dimethyl-6-(4-morpholinyl)-2,3-dihydro-1H-indol-1-yl)-6,8-dimethoxy-2,3-dimethylquinoline]",3970
3,"Cc1c(-c2ccccc2F)nc2cc(F)ccc2c1N1CC(C)(C)c2ccc(N3CCOCC3)cc21 [4-(3,3-dimethyl-6-(4-morpholinyl)-2,3-dihydro-1H-indol-1-yl)-7-fluoro-2-(2-fluorophenyl)-3-methylquinoline]",197
4,"Cc1c(-c2ccccc2S(C)(=O)=O)nc2cc(F)ccc2c1N1CC(C)(C)c2ccc(N3CCOCC3)cc21 [4-(3,3-dimethyl-6-(4-morpholinyl)-2,3-dihydro-1H-indol-1-yl)-7-fluoro-3-methyl-2-(2-(methylsulfonyl)phenyl)quinoline]",4.43
5,"COc1cc2nc(C)c(C)c(N3CC(C)(C)c4ccc(N5CCOCC5)cc43)c2cc1C [4-(3,3-dimethyl-6-(4-morpholinyl)-2,3-dihydro-1H-indol-1-yl)-7-methoxy-2,3,6-trimethylquinoline]",622
6,"Cc1c(-c2ccccn2)nc2c(F)cccc2c1N1CC(C)(C)c2ccc(N3CCOCC3)cc21 [4-(3,3-dimethyl-6-(4-morpholinyl)-2,3-dihydro-1H-indol-1-yl)-8-fluoro-3-methyl-2-(2-pyridinyl)quinoline]",93.7
7,"Cc1c(-c2cccc(F)c2)nc2ncccc2c1N1CC(C)(C)c2ncc(N3CCOCC3)cc21 [4-(3,3-dimethyl-6-(4-morpholinyl)-2,3-dihydro-1H-pyrrolo[3,2-b]pyridin-1-yl)-2-(3-fluorophenyl)-3-methyl-1,8-naphthyridine]",5.38
8,"Cc1ccnc(-c2nc3cnccc3c(N3CC(C)(C)c4ncc(N5CCOCC5)cc43)c2C)c1 [4-(3,3-dimethyl-6-(4-morpholinyl)-2,3-dihydro-1H-pyrrolo[3,2-b]pyridin-1-yl)-3-methyl-2-(4-methyl-2-pyridinyl)-1,7-naphthyridine]",5.37
9,"Cc1c(C2(c3ccccc3)CC2)nc2cc(F)cc(F)c2c1N1CC(C)(C)c2ncc(N3CCOCC3)cc21 [4-(3,3-dimethyl-6-(4-morpholinyl)-2,3-dihydro-1H-pyrrolo[3,2-b]pyridin-1-yl)-5,7-difluoro-3-methyl-2-(1-phenylcyclopropyl)quinoline]",21.8
10,"Cc1c(-c2ccccn2)nc2c(C)ccc(F)c2c1N1CC(C)(C)c2ncc(N3CCOCC3)cc21 [4-(3,3-dimethyl-6-(4-morpholinyl)-2,3-dihydro-1H-pyrrolo[3,2-b]pyridin-1-yl)-5-fluoro-3,8-dimethyl-2-(2-pyridinyl)quinoline]",4.07
11,"Cc1c(-c2ccccn2)nc2cccc(F)c2c1N1CC(C)(C)c2ncc(N3CCOCC3)cc21 [4-(3,3-dimethyl-6-(4-morpholinyl)-2,3-dihydro-1H-pyrrolo[3,2-b]pyridin-1-yl)-5-fluoro-3-methyl-2-(2-pyridinyl)quinoline]",3.33
12,"CC1(C)CN(c2c(C#N)c(-c3ccccn3)nc3cc(F)ccc23)c2cc(N3CCOCC3)cnc21 [4-(3,3-dimethyl-6-(4-morpholinyl)-2,3-dihydro-1H-pyrrolo[3,2-b]pyridin-1-yl)-7-fluoro-2-(2-pyridinyl)-3-quinolinecarbonitrile]",437
13,"CC(C)c1c(-c2ccccn2)nc2cc(F)ccc2c1N1CC(C)(C)c2ncc(N3CCOCC3)cc21 [4-(3,3-dimethyl-6-(4-morpholinyl)-2,3-dihydro-1H-pyrrolo[3,2-b]pyridin-1-yl)-7-fluoro-3-(1-methylethyl)-2-(2-pyridinyl)quinoline]",5.87
14,"Cc1c(-c2ccccc2S(C)(=O)=O)nc2cc(F)ccc2c1N1CC(C)(C)c2ncc(N3CCOCC3)cc21 [4-(3,3-dimethyl-6-(4-morpholinyl)-2,3-dihydro-1H-pyrrolo[3,2-b]pyridin-1-yl)-7-fluoro-3-methyl-2-(2-(methylsulfonyl)phenyl)quinoline]",7.8
15,"Cc1ncccc1-c1nc2cc(F)ccc2c(N2CC(C)(C)c3ncc(N4CCOCC4)cc32)c1C [4-(3,3-dimethyl-6-(4-morpholinyl)-2,3-dihydro-1H-pyrrolo[3,2-b]pyridin-1-yl)-7-fluoro-3-methyl-2-(2-methyl-3-pyridinyl)quinoline]",4.07
16,"Cc1c(-c2ccccn2)nc2cc(F)ccc2c1N1CC(C)(C)c2ncc(N3CCOCC3)cc21 [4-(3,3-dimethyl-6-(4-morpholinyl)-2,3-dihydro-1H-pyrrolo[3,2-b]pyridin-1-yl)-7-fluoro-3-methyl-2-(2-pyridinyl)quinoline]",6.76
17,"Cc1ccnc(-c2nc3cc(F)ccc3c(N3CC(C)(C)c4ncc(N5CCOCC5)cc43)c2C)c1 [4-(3,3-dimethyl-6-(4-morpholinyl)-2,3-dihydro-1H-pyrrolo[3,2-b]pyridin-1-yl)-7-fluoro-3-methyl-2-(4-methyl-2-pyridinyl)quinoline]",4.17
18,"Cc1c(-c2ccccn2)nc2ncccc2c1N1CCOc2ccc(N3CCOCC3)cc21 [4-(3-methyl-2-(2-pyridinyl)-1,8-naphthyridin-4-yl)-6-(4-morpholinyl)-3,4-dihydro-2H-1,4-benzoxazine]",883

# More lines, now with the values ahead:
row,Ki [nM],Structure (SMILES)
1,15.6,"Cc1cc(C)cc(-c2nc3cc(F)ccc3c(N3CC(C)(C)c4ncc(N5CCOCC5)cc43)c2C)c1 [4-(3,3-dimethyl-6-(4-morpholinyl)-2,3-dihydro-1H-pyrrolo[3,2-b]pyridin-1-yl)-2-(3,5-dimethylphenyl)-7-fluoro-3-methylquinoline]"
2,7.75,"Cc1c(-c2cncc(F)c2)nc2cnccc2c1N1CC(C)(C)c2ncc(N3CCOCC3)cc21 [4-(3,3-dimethyl-6-(4-morpholinyl)-2,3-dihydro-1H-pyrrolo[3,2-b]pyridin-1-yl)-2-(5-fluoro-3-pyridinyl)-3-methyl-1,7-naphthyridine]"
3,2.77,"Cc1c(-c2cccc3[nH]ccc23)nc2cc(F)cc(F)c2c1N1CC(C)(C)c2ncc(N3CCOCC3)cc21 [4-(3,3-dimethyl-6-(4-morpholinyl)-2,3-dihydro-1H-pyrrolo[3,2-b]pyridin-1-yl)-5,7-difluoro-2-(1H-indol-4-yl)-3-methylquinoline]"
4,2.87,"Cc1c(Cc2cccc(F)c2)nc2cc(F)cc(F)c2c1N1CC(C)(C)c2ncc(N3CCOCC3)cc21 [4-(3,3-dimethyl-6-(4-morpholinyl)-2,3-dihydro-1H-pyrrolo[3,2-b]pyridin-1-yl)-5,7-difluoro-2-(3-fluorobenzyl)-3-methylquinoline]"
5,5.21,"Cc1c(-c2cncc(F)c2)nc2cc(F)cc(F)c2c1N1CC(C)(C)c2ncc(N3CCOCC3)cc21 [4-(3,3-dimethyl-6-(4-morpholinyl)-2,3-dihydro-1H-pyrrolo[3,2-b]pyridin-1-yl)-5,7-difluoro-2-(5-fluoro-3-pyridinyl)-3-methylquinoline]"
6,195,"Cc1c(-c2ccc3c(ccn3C)c2)nc2cc(F)cc(F)c2c1N1CC(C)(C)c2ncc(N3CCOCC3)cc21 [4-(3,3-dimethyl-6-(4-morpholinyl)-2,3-dihydro-1H-pyrrolo[3,2-b]pyridin-1-yl)-5,7-difluoro-3-methyl-2-(1-methyl-1H-indol-5-yl)quinoline]"
7,230,"Cc1c(-c2cccc3ccccc23)nc2cc(F)cc(F)c2c1N1CC(C)(C)c2ncc(N3CCOCC3)cc21 [4-(3,3-dimethyl-6-(4-morpholinyl)-2,3-dihydro-1H-pyrrolo[3,2-b]pyridin-1-yl)-5,7-difluoro-3-methyl-2-(1-naphthalenyl)quinoline]"
8,2.9,"C=C(c1ccccc1)c1nc2cc(F)cc(F)c2c(N2CC(C)(C)c3ncc(N4CCOCC4)cc32)c1C [4-(3,3-dimethyl-6-(4-morpholinyl)-2,3-dihydro-1H-pyrrolo[3,2-b]pyridin-1-yl)-5,7-difluoro-3-methyl-2-(1-phenylethenyl)quinoline]"
9,8.12,"Cc1c(CCc2ccccc2)nc2cc(F)cc(F)c2c1N1CC(C)(C)c2ncc(N3CCOCC3)cc21 [4-(3,3-dimethyl-6-(4-morpholinyl)-2,3-dihydro-1H-pyrrolo[3,2-b]pyridin-1-yl)-5,7-difluoro-3-methyl-2-(2-phenylethyl)quinoline]"
10,17.3,"Cc1c(Cc2cccc(C(F)(F)F)c2)nc2cc(F)cc(F)c2c1N1CC(C)(C)c2ncc(N3CCOCC3)cc21 [4-(3,3-dimethyl-6-(4-morpholinyl)-2,3-dihydro-1H-pyrrolo[3,2-b]pyridin-1-yl)-5,7-difluoro-3-methyl-2-(3-(trifluoromethyl)benzyl)quinoline]"
11,18.4,"Cc1ccnc(-c2nc3cc(F)cc(F)c3c(N3CC(C)(C)c4ncc(N5CCOCC5)cc43)c2C)c1 [4-(3,3-dimethyl-6-(4-morpholinyl)-2,3-dihydro-1H-pyrrolo[3,2-b]pyridin-1-yl)-5,7-difluoro-3-methyl-2-(4-methyl-2-pyridinyl)quinoline]"
12,16.7,"Cc1c(-c2cncc(S(C)(=O)=O)c2)nc2cc(F)cc(F)c2c1N1CC(C)(C)c2ncc(N3CCOCC3)cc21 [4-(3,3-dimethyl-6-(4-morpholinyl)-2,3-dihydro-1H-pyrrolo[3,2-b]pyridin-1-yl)-5,7-difluoro-3-methyl-2-(5-(methylsulfonyl)-3-pyridinyl)quinoline]"
13,3,"Cc1cncc(-c2nc3cc(F)cc(F)c3c(N3CC(C)(C)c4ncc(N5CCOCC5)cc43)c2C)c1 [4-(3,3-dimethyl-6-(4-morpholinyl)-2,3-dihydro-1H-pyrrolo[3,2-b]pyridin-1-yl)-5,7-difluoro-3-methyl-2-(5-methyl-3-pyridinyl)quinoline]"
14,88.3,"Cc1c(/C=C/c2ccccc2)nc2cc(F)cc(F)c2c1N1CC(C)(C)c2ncc(N3CCOCC3)cc21 [4-(3,3-dimethyl-6-(4-morpholinyl)-2,3-dihydro-1H-pyrrolo[3,2-b]pyridin-1-yl)-5,7-difluoro-3-methyl-2-((E)-2-phenylethenyl)quinoline]"
15,17.1,"Cc1c(Nc2ccccn2)nc2cc(F)cc(F)c2c1N1CC(C)(C)c2ncc(N3CCOCC3)cc21 [4-(3,3-dimethyl-6-morpholino-2,3-dihydro-1H-pyrrolo[3,2-b]pyridin-1-yl)-5,7-difluoro-3-methyl-N-(pyridin-2-yl)quinolin-2-amine]"
